Legend:
Format in all cases: functional
HeLa = test: Cytotoxicity against human HeLa cells assessed as growth inhibition after 3 days by MTT assay; settings: 72 h
PC-3 = test: Cytotoxicity against human PC3 cells assessed as growth inhibition after 3 days by MTT assay; settings: PC-3, 72 h
SK-N-SH = test: Cytotoxicity against human SK-N-SH cells assessed as growth inhibition after 3 days by MTT assay; settings: 72 h
MCF7 = test: Cytotoxicity against human MCF7 cells assessed as growth inhibition after 3 days by MTT assay; settings: MCF7, 72 h

## C[C@]12CCC(=O)N[C@@H]1CC[C@@H]1[C@@H]2CC[C@]2(C)O[C@H](n3cnc4c(NCc5ccccc5)ncnc43)CC[C@@H]12
HeLa
  GI50: 129 µM
PC-3
  GI50: 20.6 µM
SK-N-SH
  GI50: 133 µM
MCF7
  GI50: 136 µM

## C[C@]12CCC(=O)N[C@@H]1CC[C@@H]1[C@@H]2CC[C@]2(C)O[C@H](n3cnc4c(Cl)nc(F)nc43)CC[C@@H]12
HeLa
  GI50: 13.3 µM
PC-3
  GI50: 3.76 µM
SK-N-SH
  GI50: 10.7 µM
MCF7
  GI50: 16.7 µM

## CC(=O)O[C@H]1C(=O)[C@@]2(C)[C@H]([C@H](OC(=O)c3ccccc3)[C@]3(O)C[C@H](OC(=O)[C@H](O)[C@@H](NC(=O)c4ccccc4)c4ccccc4)C(C)=C1C3(C)C)[C@]1(OC(C)=O)CO[C@@H]1C[C@@H]2O [PACLITAXEL]
HeLa
  GI50: 2.82 µM
PC-3
  GI50: 1.46 µM
SK-N-SH
  GI50: 2.19 µM
MCF7
  GI50: 1.07 µM

## C[C@]12CCC(=O)N[C@@H]1CC[C@@H]1[C@@H]2CC[C@]2(C)O[C@H](n3cnc4c(Cl)nc(Cl)nc43)CC[C@@H]12
HeLa
  GI50: 7.57 µM
PC-3
  GI50: 11.2 µM
SK-N-SH
  GI50: 34.2 µM
MCF7
  GI50: 34.2 µM

## C[C@]12CCC(=O)N[C@@H]1CC[C@@H]1[C@@H]2CC[C@]2(C)O[C@H](n3cnc4c(Cl)ncnc43)CC[C@@H]12
HeLa
  GI50: 17.7 µM
PC-3
  GI50: 3.25 µM
SK-N-SH
  GI50: 103 µM
MCF7
  GI50: 20.9 µM
